Laboratory results taken from patent publication US20200171132A1, “METHODS OF INHIBITING FUNGAL CERAMIDE SYNTHASE FOR TREATMENT OF CRYPTOCOCCUS NEOFORMANS INFECTION” (The Research Foundation for the State University of New York, priority 2017, published 2020).

System: fungal Cer1 (Cn Cer1)
Test: High throughput ceramide synthase assay (96-well, NBD-sphingosine, SPE)
Format: biochemical, Cryptococcus neoformans
Settings: 1 micromolar; wells contained 10 compounds each; 1 hour at 37° C.
Description: The compounds were first diluted to 1 mM each (1:10 dilution with 10% DMSO) with a physiological buffer (YNB medium buffered with HEPES at pH 7.4 containing 2% glucose) and subsequently diluted to 300 μM (1:3.3 dilution) with the same medium (3% DMSO). A 100-μl aliquot of this solution was placed into each well of a 96-well master plate and stored at −20° C. until use. Each well in the screening master plates contained 10 compounds at 1 μM each. The ceramide synthase reaction was performed in a 96-well plate format using fungal Cer1 (Cn Cer1) or human ceramide synthase (Hu-Cer1, -Cer2, -Cer3, -Cer4, -Cer5, or -Cer6) enzyme, containing NBD-Sphingosine (NBD-Sph) (Avanti Polar Lipids) and 18:0 Coenzyme A (Stearoyl Coenzyme A, Avanti Polar Lipids) as substrates using the following concentrations: 10 μM NBD-Sph and 50 μM fatty acid CoA. The reaction mixture was prepared in HEPES buffer (20 mM HEPES, pH 7.2, 25 mM KCl, 250 mM sucrose, and 2 mM MgCl2). Library compounds were added and plate incubated for 1 hour at 37 C. The lipid product (NBD-ceramide) was separated using solid phase extraction (SPE) column chromatography using Strata® C18-E, 96 well plates (Phenomenex). Reaction product was measured using a plate reader.
The Cn Cer1 enzyme is expressed using the pYES-GAL1 galactose inducible system in Saccharomyces cerevisiae whereas the mammalian ceramide synthases (Cer1-6) are induced with tetracycline using the Tet-On System in HCT-116 cells under the control of Geneticin and Blasticidin. Cn Cer1 or Hu Cer1-6 enzymes were extracted using the tag system and enriched in microsomal preparation. Before using the enzymes in the plate screening, each preparation was tested for ceramide activity using the TLC assay illustrated in FIG. 11, to make sure the ceramide synthase activity works as expected. Appropriate negative controls (e.g. Cn Cer1 on glucose or Hu Cer1 in absence of tetracycline) were included in each plate during the screening.
The ceramide synthase assay was performed using NBD-Sphingosine (NBD-Sph) (Avanti polar lipids) and 18:0 Coenzyme A (Stearoyl Coenzyme A, Avanti polar lipids) as substrates using the following concentrations: 10 μM NBD-Sph and 50 μM fatty acid CoA. Enzyme(s)—ceramide synthases—were prepared using microsome purification of the yeasts or mammalian expression system. For yeast, the S. cerevisiae strain BY4741 expressing C. neoformans ceramide synthase 1 using the pYES GAL1 expression system was grown in 200 ml of liquid YNB 2% galactose medium for 16 hours. The same strain grown in the same medium but containing 2% glucose was used as a negative control because the Cn Cer1 gene is under the control of the galactose promoter (GAL1). Cells were then harvested by centrifugation, resuspended in 2 ml of Lysis Buffer (20 mM HEPES/KOH, pH 7.4, 25 mM KCl, 2 mM MgCl2, 250 mM sorbitol) and 50 μl of proteinase inhibitor mixture (Sigma-Aldrich)/g of cells, and broken by bead-bashing at 4° C. for 1.5 h. Cell debris were removed by centrifuging at 1000 g at 4° C. for 10 min. The supernatant was loaded on a 60% (w/w) sucrose cushion and centrifuged at 100,000 g for 1 h. The microsomes were collected from the interphase, snap frozen in liquid nitrogen, and stored at −80° C. until use.
The high throughput assays were adapted from the Avanti Ceramide synthase assay kit (https://avantilipids.com/product/640011/). The reactions were first downsized to 20 μl in a 96-well plate format using human ceramide synthases (Cer1, […], Cer3, Cer4, Cer5, or Cer6) along with Cn Cer1. Lipid product (NBD-ceramide) was separated using solid phase extraction (SPE) column chromatography using Strata® C18-E, 96 well plates (Phenomenex). The reaction product was measured using a plate reader, as in FIG. 12. The Z′ score of the assay is 0.80194, which is considered excellent (FIG. 12).
An initial screening yielded compounds 1-10 (Table 3). […]

Row | Compound | % reduction in activity (inhibition of Cn Cer1 synthse activity)
1 | CC(C)Nc1cc(-c2ccc3c(c2)OCO3)nc(N)n1 [Compound 1] | 94.43%
2 | OCc1cc(-c2ccc3ccccc3n2)ccc1F [Compound 2] | 94.43%
3 | C=CCc1cc(-c2[nH]cnc2-c2ccccc2)cc(OC)c1O [Compound 3] | 94.43%
4 | Cc1ccsc1C(=O)N1CCN2C(=O)CNC(=O)C2C1 (stereo not shown) [Compound 4] | 94.43%
5 | Cn1ccnc1CN(Cc1cc2ccccc2o1)C1CC1 [Compound 5] | 94.43%
6 | CCN(C/C=C/c1ccccc1)C(=O)c1cc2cccnc2nc1C [Compound 6] | 94.43%
7 | CCN(CC1CCCCO1)C(=O)c1cccc(-n2cnnc2)c1 (stereo not shown) [Compound 7] | 94.43%
8 | CC(C)CN1CC(C(=O)NCc2nncn2C2CCCCC2)CC1=O (stereo not shown) [Compound 8] | 94.43%
9 | CC(Cn1ccc2ccccc21)NC(=O)c1ccc(-n2cnnc2)cc1 (stereo not shown) [Compound 9] | 94.43%
10 | CCN(C/C=C/c1ccccc1)C(=O)c1ccc(-n2cnnc2)cc1 [Compound 10] | 94.43%
11 | Cc1ccc(F)cc1NC(=O)N1CCOC2(CNCCOC2)C1 (stereo not shown) [Compound 11] | 87.67%
12 | c1cncc(COC2CCN(Cc3ccc(-c4cc[nH]n4)s3)CC2)c1 [Compound 12] | 87.67%
13 | CN1CC2(CCCN(C(=O)c3ccc4c(c3)OCCN4C)CC2)OC1=O (stereo not shown) [Compound 13] | 87.67%
14 | CN(Cc1cc2cc(F)ccc2[nH]1)C(=O)c1ccccc1C1CCNC1 (stereo not shown) [Compound 14] | 87.67%
15 | CCn1c(C2CCN(C(=O)C(N)CC3CCCC3)CC2)nn(C)c1=O (stereo not shown) [Compound 15] | 87.67%
16 | Cc1nc[nH]c1-c1nccn1C(C)c1cccs1 (stereo not shown) [Compound 16] | 87.67%

Row | Compound | % reduction in activity (inhibition of Cn Cer1 synthse activity)
17 | Clc1cccc2ccc(CN3CCn4cncc4C3)nc12 [Compound 17] | 87.67%
18 | COc1cccc2c1OCCCN(C(=O)c1cn3c(n1)CNCC3)C2 [Compound 18] | 87.67%
19 | FC(F)(F)C1CCN(Cc2cc3n(n2)CCNC3)CC1 [Compound 19] | 87.67%
20 | Fc1cccc(CN2CCN(Cc3cnc(NCC4CCCO4)nc3)CC2)c1 (stereo not shown) [Compound 20] | 87.67%
21 | CCCCN(Cc1ccco1)C(=O)c1cc(C)[nH]c(=O)c1 [Compound 21] | 86.1%
22 | O=C(NCCC1=CCCN(CCCF)C1)c1cccs1 [Compound 22] | 86.1%
23 | CCN(Cc1ccc(-n2cccn2)cc1)CC1CCOCC1 [Compound 23] | 86.1%
24 | O=C(NCC1(Cn2cccn2)CC1)c1ccccc1N1CCOCC1 [Compound 24] | 86.1%
25 | C/C(=C\c1ccccc1)CN1CCC(CN)C1 (stereo not shown) [Compound 25] | 86.1%
26 | CCC[C@@H]1C[C@H](NC(C)=O)C[C@H](C2CCCCC2)O1 [Compound 26] | 86.1%
27 | CCc1ncc(C(=O)N2CCN(CC(C)C)C(=O)C2C)cn1 (stereo not shown) [Compound 27] | 86.1%
28 | COc1cc(F)c(C2CC(=O)Nc3cc(N4CCNC4=O)ccc32)cc1OC (stereo not shown) [Compound 28] | 86.1%
29 | Cc1cc2c(cc1O)NC(=O)CC2c1c[nH]nc1-c1ccc(F)cc1 (stereo not shown) [Compound 29] | 86.1%
30 | Cc1nc(CC(=O)NCCSc2nnc(C)s2)cs1 [Compound 30] | 86.1%
31 | O=C1NCC2(CCCN(c3ncnc4[nH]ccc34)CC2)O1 (stereo not shown) [Compound 31] | 85.73%
